Test results: PubChem BioAssay AID2060490 (Molecular Pharmacology Branch, DTP, NCI, 2025)

Tested on: 885512-296-R-J2-PDC complex spheroid viability
Assay: Anticancer human tumor 885512-296-R-J2-PDC patient-derived breast carcinoma cell line growth inhibition [GQUAD]
Conditions: for IC50: curve of first compound; for viability, T/C: stronger effect = lower value
Description: DNA G-quadruplex Stabilizer Agents in Combinations in Complex Spheroids
A high-throughput screen of multi-cell type tumor spheroids was designed to identify active combinations of DNA G-quadruplex stabilizer agents and targeted small molecules. Complex spheroids include a stromal component modeled by human endothelial cells (HUVEC) and fibroblasts modeled by human mesenchymal stem cells (MSCs). The concentration ranges selected for each drug and investigational agent were based upon clinically achievable concentrations if the clinical Cmax of the agent was known.
Compounds. The drugs and investigational agents: pidnarulex (CX-5461; NSC782164), APTO-253 (NSC789042), BRACO-19 (NSC847499), peposertib (NSC802822), ceralasertib (NSC780249), elimusertib (NSC800525), camonsertib (NSC841442), AZD-1390 (NSC803789), olaparib (NSC753686), talazoparib (NSC767125), ART-558 (NSC835418), sotorasib (NSC818433), MRTX-1133 (NSC836407), SN-38 (NSC673596), topotecan (NSC609699), etoposide (NSC141540), doxorubicin (NSC123127), gemcitabine (NSC613327), 5-fluorouracil (NSC19893), paclitaxel (NSC125973), vemurafenib (NSC761431), panobinostat (NSC761190), R-306465 (JNJ-16241199; NSC773264), adavosertib (NSC754352), TP-3654 (NSC805149), carboplatin (NSC241240), KSQ-4279 (NSC840948), and staurosporine (NSC755774) were obtained from the National Cancer Institute (NCI) Developmental Therapeutics Program Chemical Repository (34). The FDA-approved anticancer drug set is available from the NCI Developmental Therapeutics Program. […] The stock solutions were prepared in dimethyl sulfoxide (DMSO, Sigma-Aldrich, St. Louis, MO, cat. D2650) at 800-fold the tested concentration and stored at -70 degrees C prior to their use. All drugs and investigational agents were tested over a range starting from a high concentration at or near the clinical Cmax and decreasing in half-log increments. If the clinical Cmax for an agent had not been determined, the highest concentration tested was 10 microM.
2.3 Cell Culture. All cells were maintained in an incubator at 37 degrees C and 5% CO2 with 95% humidity. The PDC lines were cultured according to standard operating procedures established by the NCI PDMR. All PDCs were thawed and cultured in Matrigel-coated flasks prepared with a working solution of 1X Ham's F-12 nutrient mix, without supplementation (Invitrogen, cat. 11765054), 100 U/mL penicillin-streptomycin (Invitrogen, cat. 15140122), and 2.5% Matrigel (Corning Inc., cat. 354248) for the first three passages. The 857933-349-R-J2-PDC line was cultured in 6C/Colon 1B media, which includes advanced DMEM/F-12 (Thermo Fisher Scientific, cat. 12634028), 10 mM HEPES (Thermo Fisher Scientific, cat. 15630080), 1X GlutaMAX supplement (Thermo Fisher Scientific, cat. 35050061), 0.1 mg/mL primocin (InvivoGen, cat. ant-pm-2), 10% defined fetal bovine serum, heat inactivated (HyClone Laboratories Inc., cat. SH30070.03HI), 50% L-WRN conditioned media (ATCC, cat. CRL-3276), 1.25 mM N-Acetyl-L-cysteine (Sigma-Aldrich, cat. A9165), 10 mM nicotinamide (Sigma-Aldrich, cat. N0636), 1X B-27 supplement (Thermo Fisher Scientific, cat. 17504044), 1X N-2 supplement (Thermo Fisher Scientific, cat. 17502048), 10 microM Y-27632 dihydrochloride (Tocris Bioscience, cat. 1254), and 50 ng/mL human EGF recombinant protein (Thermo Fisher Scientific, cat. PHG0311). The 485176-168-R4-J1-PDC line was cultured in Panc media, which includes all 6C/Colon 1B media components plus 100 ng/mL human FGF-10 (Thermo Fisher Scientific, cat. 100-26), 500 nM SB-431542 (Selleckchem, cat. S1067), and gastrin (Tocris, cat. 3006).
[…]

[1] = second compound 0.0316 µM, first compound 0.0316 µM
[2] = second compound 0.0316 µM, first compound 0.316 µM
[3] = second compound 0.1 µM, first compound 0.0316 µM
[4] = second compound 0.1 µM, first compound 0.316 µM
[5] = second compound 0.316 µM, first compound 0.0316 µM
[6] = second compound 0.316 µM, first compound 0.316 µM
[7] = second compound 1 µM, first compound 0.0316 µM
[8] = second compound 1 µM, first compound 0.316 µM
[9] = second compound 3.16 µM, first compound 0.0316 µM
[10] = second compound 3.16 µM, first compound 0.316 µM
[11] = second compound 10 µM, first compound 0.0316 µM
[12] = second compound 10 µM, first compound 0.316 µM
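Further: spheroids exposed to the compounds for one week.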
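Wherever viability, T/C is given: percent of tumor spheroid viability relative to DMSO vehicle control wells.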

Cc1cccc(N(C)C(=O)C2C(O)CCN2c2nc(C)cc(C(F)(F)F)c2C#N)c1 (centres undefined) + Cc1[nH]c2ccc(F)cc2c1-c1nc2c3cccnc3c3ncccc3c2[nH]1
IC50 (second compound 0.0316 µM): > 10000 nM
IC50 (second compound 0.1 µM): > 10000 nM
IC50 (second compound 0.316 µM): > 10000 nM
IC50 (second compound 1 µM): > 10000 nM
IC50 (second compound 3.16 µM): < 31.6 nM
IC50 (second compound 10 µM): < 31.6 nM
viability, T/C [1]: 101%
viability, T/C (second compound 0.0316 µM, first compound 0.1 µM): 92.6%
viability, T/C [2]: 108%
viability, T/C (second compound 0.0316 µM, first compound 1 µM): 97.3%
viability, T/C (second compound 0.0316 µM, first compound 3.16 µM): 96.7%
viability, T/C (second compound 0.0316 µM, first compound 10 µM): 91.5%
viability, T/C [3]: 98.5%
viability, T/C (second compound 0.1 µM, first compound 0.1 µM): 99.8%
viability, T/C [4]: 100%
viability, T/C (second compound 0.1 µM, first compound 1 µM): 94.2%
viability, T/C (second compound 0.1 µM, first compound 3.16 µM): 105%
viability, T/C (second compound 0.1 µM, first compound 10 µM): 93.2%
viability, T/C [5]: 90.2%
viability, T/C (second compound 0.316 µM, first compound 0.1 µM): 98.9%
viability, T/C [6]: 98.8%
viability, T/C (second compound 0.316 µM, first compound 1 µM): 94.2%
viability, T/C (second compound 0.316 µM, first compound 3.16 µM): 90.7%
viability, T/C (second compound 0.316 µM, first compound 10 µM): 82.4%
viability, T/C [7]: 83.5%
viability, T/C (second compound 1 µM, first compound 0.1 µM): 78.2%
viability, T/C [8]: 87.4%
viability, T/C (second compound 1 µM, first compound 1 µM): 88.8%
viability, T/C (second compound 1 µM, first compound 3.16 µM): 90.5%
viability, T/C (second compound 1 µM, first compound 10 µM): 68.6%
viability, T/C [9]: 30.2%
viability, T/C (second compound 3.16 µM, first compound 0.1 µM): 30.1%
viability, T/C [10]: 16.5%
viability, T/C (second compound 3.16 µM, first compound 1 µM): 22.4%
viability, T/C (second compound 3.16 µM, first compound 3.16 µM): 20.8%
viability, T/C (second compound 3.16 µM, first compound 10 µM): 19.9%
viability, T/C [11]: 3.35%
viability, T/C (second compound 10 µM, first compound 0.1 µM): 3.56%
viability, T/C [12]: 2.69%
viability, T/C (second compound 10 µM, first compound 1 µM): 2.33%
viability, T/C (second compound 10 µM, first compound 3.16 µM): 2.29%
viability, T/C (second compound 10 µM, first compound 10 µM): 2.63%

Cn1ncnc1[C@H]1c2n[nH]c(=O)c3cc(F)cc(c23)N[C@@H]1c1ccc(F)cc1 + Cc1[nH]c2ccc(F)cc2c1-c1nc2c3cccnc3c3ncccc3c2[nH]1
IC50 (second compound 0.0316 µM): 277 nM
IC50 (second compound 0.1 µM): 234 nM
IC50 (second compound 0.316 µM): 220 nM
IC50 (second compound 1 µM): 106 nM
IC50 (second compound 3.16 µM): < 0.999 nM
IC50 (second compound 10 µM): < 0.999 nM
viability, T/C (second compound 0.0316 µM, first compound 0.000999 µM): 108%
viability, T/C (second compound 0.0316 µM, first compound 0.00316 µM): 84.1%
viability, T/C (second compound 0.0316 µM, first compound 0.00999 µM): 89.5%
viability, T/C [1]: 86.8%
viability, T/C (second compound 0.0316 µM, first compound 0.0999 µM): 66.4%
viability, T/C [2]: 46.8%
viability, T/C (second compound 0.1 µM, first compound 0.000999 µM): 104%
viability, T/C (second compound 0.1 µM, first compound 0.00316 µM): 101%
viability, T/C (second compound 0.1 µM, first compound 0.00999 µM): 93.9%
viability, T/C [3]: 75.4%
viability, T/C (second compound 0.1 µM, first compound 0.0999 µM): 76.2%
viability, T/C [4]: 41.1%
viability, T/C (second compound 0.316 µM, first compound 0.000999 µM): 90.8%
viability, T/C (second compound 0.316 µM, first compound 0.00316 µM): 82.9%
viability, T/C (second compound 0.316 µM, first compound 0.00999 µM): 82.1%
viability, T/C [5]: 77.3%
viability, T/C (second compound 0.316 µM, first compound 0.0999 µM): 67%
viability, T/C [6]: 42.1%
viability, T/C (second compound 1 µM, first compound 0.000999 µM): 70.8%
viability, T/C (second compound 1 µM, first compound 0.00316 µM): 79.3%
viability, T/C (second compound 1 µM, first compound 0.00999 µM): 67.6%
viability, T/C [7]: 57.7%
viability, T/C (second compound 1 µM, first compound 0.0999 µM): 53.6%
viability, T/C [8]: 34.6%
viability, T/C (second compound 3.16 µM, first compound 0.000999 µM): 25.6%
viability, T/C (second compound 3.16 µM, first compound 0.00316 µM): 23.2%
viability, T/C (second compound 3.16 µM, first compound 0.00999 µM): 17.1%
viability, T/C [9]: 15.6%
viability, T/C (second compound 3.16 µM, first compound 0.0999 µM): 13.8%
viability, T/C [10]: 7.86%
viability, T/C (second compound 10 µM, first compound 0.000999 µM): 3.25%
viability, T/C (second compound 10 µM, first compound 0.00316 µM): 3.75%
viability, T/C (second compound 10 µM, first compound 0.00999 µM): 8.84%
viability, T/C [11]: 2.56%
viability, T/C (second compound 10 µM, first compound 0.0999 µM): 2.53%
viability, T/C [12]: 2.11%
